Laboratory results as given in paper PMC11671014 (PLOS Pathogens, 2024).
Where “and” joins values, the source holds several entries; their conditions need not be identical. Equal entries are not always repeated.

Assays:
[1] = biological target: T1, NAE (NEDD8-activating enzyme) (Homo sapiens, UniProt Q8TBC4); test: NAE E1-E2 transthiolation HTRF assay; type: biochemical
T1 sequence (Q8TBC4 1-463): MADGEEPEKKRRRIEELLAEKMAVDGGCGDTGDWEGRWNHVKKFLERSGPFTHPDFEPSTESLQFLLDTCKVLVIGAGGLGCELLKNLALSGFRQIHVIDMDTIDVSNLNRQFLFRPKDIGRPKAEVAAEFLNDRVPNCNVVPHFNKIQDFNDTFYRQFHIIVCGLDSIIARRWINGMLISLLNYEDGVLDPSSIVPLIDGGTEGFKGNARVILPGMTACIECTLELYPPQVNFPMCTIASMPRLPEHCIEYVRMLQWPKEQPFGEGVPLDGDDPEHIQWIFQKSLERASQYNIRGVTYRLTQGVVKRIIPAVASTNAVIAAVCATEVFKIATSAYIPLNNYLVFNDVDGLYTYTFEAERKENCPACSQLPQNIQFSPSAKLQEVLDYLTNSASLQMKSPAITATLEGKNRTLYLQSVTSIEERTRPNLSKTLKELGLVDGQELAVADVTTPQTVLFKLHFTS
T1 sequence (Q13564 1-534 partner): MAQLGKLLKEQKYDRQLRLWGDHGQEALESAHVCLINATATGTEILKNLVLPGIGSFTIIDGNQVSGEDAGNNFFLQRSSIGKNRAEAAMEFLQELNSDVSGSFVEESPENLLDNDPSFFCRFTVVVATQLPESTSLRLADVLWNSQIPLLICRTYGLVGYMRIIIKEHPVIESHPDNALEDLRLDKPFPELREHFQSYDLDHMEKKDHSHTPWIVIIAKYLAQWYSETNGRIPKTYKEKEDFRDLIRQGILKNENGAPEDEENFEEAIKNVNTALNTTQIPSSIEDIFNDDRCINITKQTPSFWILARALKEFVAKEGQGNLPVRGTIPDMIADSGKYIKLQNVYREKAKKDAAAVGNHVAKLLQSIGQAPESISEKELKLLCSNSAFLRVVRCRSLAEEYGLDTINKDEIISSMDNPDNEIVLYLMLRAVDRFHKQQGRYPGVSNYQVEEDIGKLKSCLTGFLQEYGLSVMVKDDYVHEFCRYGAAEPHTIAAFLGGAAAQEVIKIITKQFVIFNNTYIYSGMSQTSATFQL
Text: An Homogeneous Time-Resolved Fluorescence (HTRF) enzyme assay was employed to evaluate compound activity against ATG7 as previously described. In this assay, a Flag-tagged ATG8 homolog (GABA type A receptor-associated protein; GABARAP) is activated by ATG7 and then transthiolated to a GST-tagged E2 (ATG3). The product of the enzyme reaction, Flag-GABARAP-ATG3-GST, is quantified by measuring FRET between Europium-Cryptate labelled monoclonal anti-Flag M2 (FLAG M2-Eu cryptate; Revvity, Cat# 61FG2KLB) and […] (Anti-GST IgG conjugated to SureLight-Allophycocyanin) (Revvity, Cat# AD0059G)). The activation and transthiolation of ubiquitin by UAE, activation and transthiolation of NEDD8 by NAE and activation and transthiolation of SUMO by SAE were all assayed in a similar fashion with appropriately tagged ubiquitin-like proteins and E2 conjugating enzymes as described.

[2] = tested on: HepG2 cells; test: HepG2 72-h viability, CellTiter-Glo; type: cell-based; conditions: Homo sapiens, 72 h exposure
Procedure: The HepG2 (Human hepatocyte carcinoma) cell line was procured from ATCC (American Type Culture Collection, Manassas, USA; HB-8065) and viability assessed using CellTiter-Glo luminescent cell viability assay reagents (Promega). For the assay, 2,000 cells/well were plated in 384-well plates 24 h prior to the experiment and incubated at 37°C in a CO2 incubator. The medium was removed; and cells were treated with fresh medium containing either vehicle (0.5% DMSO) or serially diluted compounds or doxorubicin (1.3 nM to 25 μM) in a final volume of 50 μL/well and further incubated for 72 h at 37°C in a CO2 incubator. […] Following incubation, 25 μL of medium was discarded and 25 μl of CellTiter-Glo reagent was added to each well and the plate was kept on a plate shaker for 15 min at 25°C with shaking at 300 rpm. Luminescence signals were measured in a PHERAstar FSX reader (BMG LABTECH).

[3] = biological target: PfTyrRS (Plasmodium falciparum, UniProt Q8IAR7); test: ATP consumption by PfTyrRS (Kinase Glo); type: biochemical; conditions: PfTyrRS 25 nM, ATP 10 μM, tyrosine 200 μM, cognate tRNA^Tyr 4.8 μM, 37°C 1 h; read-out: Inhibition of PfTyrRS (Kinase Glo) IC50
Sequence of PfTyrRS (Q8IAR7 entry or part of it): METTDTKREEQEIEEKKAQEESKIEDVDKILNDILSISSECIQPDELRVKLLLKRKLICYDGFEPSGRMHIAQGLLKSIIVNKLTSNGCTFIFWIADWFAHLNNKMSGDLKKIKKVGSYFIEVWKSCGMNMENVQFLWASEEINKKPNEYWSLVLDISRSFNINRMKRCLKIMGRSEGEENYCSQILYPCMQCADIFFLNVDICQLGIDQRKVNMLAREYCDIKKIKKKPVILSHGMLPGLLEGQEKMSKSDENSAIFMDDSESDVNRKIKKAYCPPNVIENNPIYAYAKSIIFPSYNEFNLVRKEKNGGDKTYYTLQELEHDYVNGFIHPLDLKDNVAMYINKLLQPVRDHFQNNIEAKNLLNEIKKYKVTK
Procedure: Consumption of ATP was measured using a luciferase-based assay as per the manufacturer’s instructions (Kinase-Glo Luminescent Kinase Assay, Promega).

[4] = tested on: Cam3.II^rev parasite cultures, trophozoite (25–30 h.p.i.) stage; test: 6-h pulse exposure of synchronized trophozoites, SYBR Green I growth inhibition in next cycle; type: cell-based; conditions: Plasmodium falciparum, read-out: P. falciparum 6-h Trophozoite Stage IC50 (Cam3.II)
Procedure: Assessment of the killing activity of ML901 in pulsed exposure assays was performed using a modification of a previously described procedure. Briefly, cultures of Cam3.II^rev trophozoites (1.5% final hematocrit; 1.4% final parasitemia) were pre-synchronized to a 5-h window at trophozoite or schizont stage. Compounds were serially diluted in complete medium in v-bottomed microplates. Parasites were exposed to ML901 for 3 h, 6 h, 9 h or 24 h before washing 5 times with 200 μl of complete medium, then returned to culture conditions. For the no wash samples, ML901 was left in the culture until the assay point. Growth inhibition was assessed in the second cycle by labelling with the DNA-binding dye, SYBR Green I. Quantification of total DNA level reflects cytostatic effects as well as cytocidal effects. Old media (140 μl) was firstly replaced with fresh media, followed by the addition of lysis buffer (20 mM Tris, pH 7.5, 5 mM EDTA, 0.008% w/v saponin, 0.08% v/v Triton X-100) containing SYBR Green I. Plates were incubated at room temperature for 2 h and fluorescence readings were taken using a microplate reader (BMG LABTECH).

## CCOc1nn([C@@H]2O[C@H](COS(N)(=O)=O)[C@@H](O)[C@H]2O)c2ncnc(N)c12 [ML676]
[1]
  IC50: 66.6 ± 1.1 µM
[2]
  IC50: 22.4 µM

## Nc1ncnc2c1c(Oc1ccccc1)nn2[C@@H]1O[C@H](COS(N)(=O)=O)[C@@H](O)[C@H]1O [ML470]
[1]
  IC50: > 100 µM
[2]
  IC50: > 50 µM
[3]
  IC50: 41 ± 23 µM

## Nc1ncnc2c1c(C(F)(F)F)nn2[C@@H]1O[C@H](COS(N)(=O)=O)[C@@H](O)[C@H]1O [ML107]
[4]
  IC50: 0.15 ± 0.033 µM
[1]
  IC50: 75.3 ± 0.8 µM
[2]
  IC50: 2.52 µM
[3]
  IC50: 24 ± 5 µM

## CCc1nn([C@@H]2O[C@H](COS(N)(=O)=O)[C@@H](O)[C@H]2O)c2ncnc(N)c12 [ML681]
[1]
  IC50: 35.3 ± 0.8 µM
[2]
  IC50: 7.53 µM
[3]
  IC50: 23 ± 8 µM

## CC(C)Oc1nn([C@@H]2O[C@H](COS(N)(=O)=O)[C@@H](O)[C@H]2O)c2ncnc(N)c12 [ML723]
[4]
  IC50: 0.22 ± 0.031 µM
[1]
  IC50: > 100 µM
[2]
  IC50: > 50 µM
[3]
  IC50: 14 ± 5 µM

## CC(C)c1nn([C@@H]2O[C@H](COS(N)(=O)=O)[C@@H](O)[C@H]2O)c2ncnc(N)c12 [ML471, ((2R,3S,4R,5R)-5-(4-amino-3-isopropyl-1H-pyrazolo[3,4-d]pyrimidin-1-yl)-3,4-dihydroxytetrahydrofuran-2-yl)methyl sulfamate]
[4]
  IC50: 0.0291 ± 0.003 µM
[1]
  IC50: > 100 µM
  activity against NAE (in words): no or very little activity
[2]
  IC50: > 50 µM
[3]
  IC50: 1.4 ± 0.2 µM

## Nc1ncnc2c1c(OC(F)F)nn2[C@@H]1O[C@H](COS(N)(=O)=O)[C@@H](O)[C@H]1O [ML901]
[4]
  IC50: 0.135 ± 0.014 µM
[1]
  IC50: 28 ± 0.6 µM
[2]
  IC50: 4.65 µM
[3]
  IC50: 13.4 µM and 13 µM
